Test results as given in patent US10869931B2, “Polyethylene glycol-modified angiogenesis inhibitor HM-1 and application thereof” (NANJING ANJI BIOLOGICAL TECHNOLOGY CO.,LTD, priority 2016, dated 2020).
Where no end group is shown, it is not given here.

Columns and labels:
Brain tumor cells = assay: MTT proliferation inhibition, brain tumor cells; type: cell-based, human; design: concentration or dose not given beside the values; settings: 48 h
Procedure: (§1) The activity of mPEG-HM-1 to inhibit the growth of various tumor cells was examined by MTT assay. The tumor cells were cultured to a concentration of 90% or more in a 37° C., 5% CO2 incubator and collected by trypsinization. The cells were resuspended in the culture medium and counted under a microscope to adjust the cell concentration to 2×10^4 cells/mL, the cell suspension was inoculated into a 96-well plate at 100 μL/well and incubated overnight at 37° C. in a 5% CO2 incubator. mPEG-HM-1 was diluted with the culture solution to each predetermined concentration. Docetaxel is diluted to the final concentration with the culture medium. After the cells were fully attached, each dilution was added to a 96-well plate (100 μL/well). The mPEG-HM-1 dilution was added as a drug-administered group, and docetaxel was added as a positive control group, and a culture solution without any drug was used as a negative control group. Incubate for 48 h at 37° C. in a 5% CO2 incubator. 5 mg/mL of MTT was added to a 96-well plate at 20 μL per well, and incubation was continued for 4 hours. The medium was aspirated, dissolved in 150 μL of DMSO per well, and gently mixed by shaking for 10 min. The absorbance was measured at a measurement wavelength of 570 nm and a reference wavelength of 630 nm using a microplate reader, and the rate of growth inhibition (proliferation inhibition, PI) was calculated. The formula is as follows: PI (%)=1−administration group/negative group
(§2) The test was repeated 3 times independently, and the results obtained by the test were expressed as mean±SD, and the test results are shown in Table 15 to Table 18.

various tumor cells = assay: MTT proliferation inhibition, overall statements on various tumor cells; type: cell-based, human; settings: compared with the negative control
Procedure: as §1, §2

| Substance | rate of growth inhibition (Brain tumor cells) | inhibition of proliferation of various tumor cells (in words) (various tumor cells) |
| --- | --- | --- |
| mPEG2-NHS5k-Arg-Gly-Ala-Asp-Arg-Ala-Gly-Gly-Gly-Gly-Arg-Gly-Asp ({mPEG2‑NHS 5 kDa}-RGADRAGGGGRGD) [mPEG2-NHS5k-HM-1] | 40.35 ± 10.29% | – |
| mPEG2-NHS10k-Arg-Gly-Ala-Asp-Arg-Ala-Gly-Gly-Gly-Gly-Arg-Gly-Asp ({mPEG2‑NHS 10 kDa}-RGADRAGGGGRGD) [mPEG2-NHS10k-HM-1] | 47.62 ± 11.11% | – |
| mPEG2-NHS20k-Arg-Gly-Ala-Asp-Arg-Ala-Gly-Gly-Gly-Gly-Arg-Gly-Asp ({mPEG2‑NHS 20 kDa}-RGADRAGGGGRGD) [mPEG2-NHS20k-HM-1] | 45.51 ± 10.15% | had the best effect |
| mPEG2-NHS40k-Arg-Gly-Ala-Asp-Arg-Ala-Gly-Gly-Gly-Gly-Arg-Gly-Asp ({mPEG2‑NHS 40 kDa}-RGADRAGGGGRGD) [mPEG2-NHS40k-HM-1] | 42.56 ± 11.38% | – |
| mPEG-ALD5k-Arg-Gly-Ala-Asp-Arg-Ala-Gly-Gly-Gly-Gly-Arg-Gly-Asp ({mPEG‑ALD 5 kDa}-RGADRAGGGGRGD) [mPEG-ALD5k-HM-1] | 42.15 ± 12.89% | – |
| mPEG-ALD10k-Arg-Gly-Ala-Asp-Arg-Ala-Gly-Gly-Gly-Gly-Arg-Gly-Asp ({mPEG‑ALD 10 kDa}-RGADRAGGGGRGD) [mPEG-ALD10k-HM-1] | 58.25 ± 14.02% | had the best effect |
| mPEG-ALD20k-Arg-Gly-Ala-Asp-Arg-Ala-Gly-Gly-Gly-Gly-Arg-Gly-Asp ({mPEG‑ALD 20 kDa}-RGADRAGGGGRGD) [mPEG-ALD20k-HM-1] | 56.89 ± 15.41% | – |
| mPEG-ALD40k-Arg-Gly-Ala-Asp-Arg-Ala-Gly-Gly-Gly-Gly-Arg-Gly-Asp ({mPEG‑ALD 40 kDa}-RGADRAGGGGRGD) [mPEG-ALD40k-HM-1] | 50.69 ± 14.41% | – |
| mPEG-SC5k-Arg-Gly-Ala-Asp-Arg-Ala-Gly-Gly-Gly-Gly-Arg-Gly-Asp ({mPEG‑SC 5 kDa}-RGADRAGGGGRGD) [mPEG-SC5k-HM-1] | 42.18 ± 12.29% | – |
| mPEG-SC10k-Arg-Gly-Ala-Asp-Arg-Ala-Gly-Gly-Gly-Gly-Arg-Gly-Asp ({mPEG‑SC 10 kDa}-RGADRAGGGGRGD) [mPEG-SC10k-HM-1] | 50.21 ± 12.19% | – |
| mPEG-SC20k-Arg-Gly-Ala-Asp-Arg-Ala-Gly-Gly-Gly-Gly-Arg-Gly-Asp ({mPEG‑SC 20 kDa}-RGADRAGGGGRGD) [mPEG-SC20k-HM-1] | 55.56 ± 12.13% | had the best effect |
| mPEG-SC40k-Arg-Gly-Ala-Asp-Arg-Ala-Gly-Gly-Gly-Gly-Arg-Gly-Asp ({mPEG‑SC 40 kDa}-RGADRAGGGGRGD) [mPEG-SC40k-HM-1] | 52.89 ± 15.41% | – |
| mPEG-bALD5k-Arg-Gly-Ala-Asp-Arg-Ala-Gly-Gly-Gly-Gly-Arg-Gly-Asp ({mPEG‑bALD 5 kDa}-RGADRAGGGGRGD) [mPEG-bALD5k-HM-1] | 45.11 ± 12.09% | – |
| mPEG-bALD10k-Arg-Gly-Ala-Asp-Arg-Ala-Gly-Gly-Gly-Gly-Arg-Gly-Asp ({mPEG‑bALD 10 kDa}-RGADRAGGGGRGD) [mPEG-bALD10k-HM-1] | 59.37 ± 14.52% | had the best effect |
| mPEG-bALD20k-Arg-Gly-Ala-Asp-Arg-Ala-Gly-Gly-Gly-Gly-Arg-Gly-Asp ({mPEG‑bALD 20 kDa}-RGADRAGGGGRGD) [mPEG-bALD20k-HM-1] | 54.77 ± 13.43% | – |
| mPEG-bALD40k-Arg-Gly-Ala-Asp-Arg-Ala-Gly-Gly-Gly-Gly-Arg-Gly-Asp ({mPEG‑bALD 40 kDa}-RGADRAGGGGRGD) [mPEG-bALD40k-HM-1] | 51.89 ± 11.91% | – |
